In patent US20140349989A1, “COMPOUNDS AND THERAPEUTIC USES THEREOF” (Alzheimer's Institute of America, priority 2011, published 2014):
Read-outs that look alike come from different tables or passages of the source.

Test: Cytotoxicity Assay (HCT116, CellTiter-Glo)
Type: cell-based
Conditions: human
Method: HCT116 cells were seeded in 96 well plates (Greiner Bio-One, Monroe, N.C.) and allowed to settle overnight. Test compound dissolved in dimethyl sulfoxide (DMSO) was added and drug incubation proceeded for 72 hours. When applicable, a 1000× solution of nicotinic acid (NA; Sigma-Aldrich, St. Louis, Mo.) dissolved in water was generated, and 1×NA (10 μM final concentration) was added at the same time as the test compound. After 72 hour, 50 μL of CellTiter-Glo Luminescent Cell Viability Assay reagent (Promega Corporation, Madison, Wis.) was added to cells in 200 μL of cellular media. After a proscribed incubation period, luminescence was measured using a TopCount NXT plate reader (PerkinElmer, Waltham, Mass.).

[1] = HCT116 cells, 72 hours drug incubation, CellTiter-Glo luminescence, read-out: HCT116 cell cytotoxicity IC50

Compound	IC50 at 72 h [1] [nM]	IC50 at 72 h (HCT116 cell cytotoxicity IC50) [nM]
O=C(NCc1cccnc1)Nc1ccc(-n2cc(-c3ccccc3OCCCN3CCOCC3)cn2)cc1 [Compound 30, 1-[4-(4-{2-[3-(Morpholin-4-yl)propoxy]phenyl}-1H-pyrazol-1-yl)phenyl]-3-(pyridin-3-ylmethyl)urea]	< 100	–
O=C(NCCCCCn1cc(C(=O)N2CCC(N3CCCCC3)CC2)c2ccccc21)NCc1cccnc1 [Compound 31, 1-{5-[3-(1,4′-Bipiperidin-1′-yl-carbonyl)-1H-indol-1-yl]pentyl}-3-(pyridin-3-ylmethyl)urea]	< 100	–
O=C(NCCCCCn1cc(C(=O)N2CCC(N3CCC(F)(F)CC3)CC2)c2ccccc21)NCc1cccnc1 [Compound 32, 1-(5-{3-[(4,4-Difluoro-1,4′-bipiperidin-1′-yl)carbonyl]-1H-indol-1-yl}pentyl)-3-(pyridin-3-ylmethyl)urea]	< 100	–
O=C(NCc1cccnc1)N[C@H]1CC[C@@H](n2cc(C(=O)N3CCN(C4CCCCC4)CC3)c3ccccc32)CC1 [Compound 34, 1-(cis-4-{3-[(4-Cyclohexyl-piperazin-1-yl)carbonyl]-1H-indol-1-yl}cyclohexyl)-3-(pyridin-3-ylmethyl)urea]	≥ 100	–
O=C(NCCCn1cc(C(=O)N2CCC(N3CCCCC3)CC2)c2ccccc21)NCc1cccnc1 [Compound 36, 1-{3-[3-(1,4′-Bipiperidin-1′-ylcarbonyl)-1H-indol-1-yl]propyl}-3-(pyridin-3-ylmethyl)urea]	≥ 100	–
O=C(NCc1cccnc1)N[C@H]1CC[C@H](n2cc(C(=O)N3CCN(C4CCCCC4)CC3)c3ccccc32)CC1 [Compound 37, 1-(trans-4-{3-[(4-Cyclohexyl-piperazin-1-yl)carbonyl]-1H-indol-1-yl}cyclohexyl)-3-(pyridin-3-ylmethyl)urea]	< 100	–
O=C(NCc1cccnc1)Nc1ccc(-n2cc(CCN3CC[C@@H](F)C3)c3ccccc32)cc1 [Compound 38, 1-[4-(3-{2-[(3R)-3-Fluoropyrrolidin-1-yl]ethyl}-1H-indol-1-yl)phenyl]-3-(pyridin-3-ylmethyl)urea]	< 100	–
O=C(NCCCCC(=O)c1cn(C2CCN(CCF)CC2)c2ccccc12)NCc1cccnc1 [Compound 39]	< 100	–
O=C(NCc1cccnc1)Nc1ccc(-n2cc(C3CCN(CC(F)F)CC3)c3ccccc32)cc1 [Compound 40, 1-(4-{3-[1-(2,2-Difluoroethyl)piperidin-4-yl]-1H-indol-1-yl}phenyl)-3-(pyridin-3-ylmethyl)urea]	< 100	–
CC(C)(C)OC(=O)N1CCC(n2cc(C#CCCCNC(=O)NCc3cccnc3)c3ccccc32)CC1 [Compound 41, tert-Butyl 4-[3-(5-{[(pyridin-3-ylmethyl)carbamoyl]ami-no}pent-1-yn-1-yl)-1H-indol-1-yl]piperidine-1-carboxylate]	–	≥ 100
O=C(NCc1cccnc1)Nc1ccc(-n2nc(C#CCN3CCOCC3)c3ccccc32)cc1 [Compound 42, 1-(4-{3-[3-(Morpholin-4-yl)prop-1-yn-1-yl]-1H-indazol-1-yl}phenyl)-3-(pyridin-3-ylmethyl)urea]	–	< 100
O=C(NCc1cccnc1)Nc1ccc(-c2cn(S(=O)(=O)c3cccnc3)c3ccccc23)cc1 [Compound 43, 1-(Pyridin-3-ylmethyl)-3-{4-[1-(pyridin-3-ylsulfonyl)-1H-indol-3-yl]phenyl} urea]	–	< 100
Nc1nn(-c2ccc(NC(=O)NCc3cccnc3)cc2)c2ccccc12 [Compound 44, 1-[4-(3-aminoindazol-1-yl)phenyl]-3-(3-pyridylmethyl)urea]	–	≥ 100
CCOC(=O)c1cn(CCCCNC(=O)NCc2cccnc2)c2ccccc12 [Compound 45, Ethyl 1-(4-{[(pyridin-3-ylmethyl)carbamoyl]amino}butyl)-1H-indole-3-carboxylate]	< 100	–
Cc1c(Cc2ccccc2)c(C(=O)N2CCC(N3CCCCC3)CC2)nn1-c1ccc(NC(=O)NCc2cccnc2)cc1 [Compound 46, 1-{4-[4-Benzyl-3-(1,4′-bipiperidin-1′-ylcarbonyl)-5-methyl-1H-pyrazol-1-yl]phenyl}-3-(pyridin-3-ylmethyl)urea]	< 100	–
Cc1c(C(=O)N2CCC(n3ccnc3)CC2)c2ccccc2n1-c1ccc(NC(=O)NCc2cccnc2)cc1 [Compound 48, 1-[4-(3-{[4-(1H-Imidazol-1-yl)piperidin-1-yl]carbonyl}-2-methyl-1H-indol-1-yl)phenyl]-3-(pyridin-3-ylmethyl)urea]	–	≥ 100
O=C(NCc1cccnc1)Nc1ccc(-n2cc(CCN3CCCCC3)c3ccccc32)cc1 [Compound 49, 1-(4-{3-[2-(Piperidin-1-yl)ethyl]-1H-indol-1-yl}phenyl)-3-(pyridin-3-ylmethyl)urea]	–	< 100

Compound	IC50 at 72 h [1] [nM]	IC50 at 72 h (HCT116 cell cytotoxicity IC50) [nM]
Cc1c(-c2ccccc2)c(C(=O)NCCCN2CCCCC2)nn1-c1ccc(NC(=O)NCc2cccnc2)cc1 [Compound 50, 5-Methyl-4-phenyl-N-[3-(piperidin-1-yl)propyl]-1-(4-{[(pyridin-3-ylmethyl)carbamoyl]ami-no}phenyl)-1H-pyrazole-3-carboxamide]	–	< 100
O=C(NCc1cccnc1)Nc1ccc2c(c1)c(C(=O)NCCCN1CCOCC1)cn2Cc1ccccc1 [Compound 51, 1-Benzyl-N-[3-(morpholin-4-yl)propyl]-5-{[(pyridin-3-ylmethyl)carbamoyl]ami-no}-1H-indole-3-carboxamide]	≥ 100	–
O=C(NCc1cccnc1)Nc1ccc(-n2cc(-c3nccn3CCN3CCCCC3)c3ccccc32)cc1 [Compound 52, 1-[4-(3-{1-[2-(Piperidin-1-yl)ethyl]-1H-imidazol-2-yl}-1H-indol-1-yl)phenyl]-3-(pyridin-3-ylmethyl)urea]	< 100	–
C[C@@H]1CN(CCc2cn(-c3ccc(NC(=O)NCc4cccnc4)cc3)c3ccccc23)C[C@H](C)O1 [Compound 53, 1-[4-(3-{2-[(2R,6S)-2,6-Dimethyl-morpholin-4-yl]ethyl}-1H-indol-1-yl)phenyl]-3-(pyridin-3-ylmethyl)urea]	< 100	–
COc1cccc(-c2cn(-c3ccc(NC(=O)NCc4cccnc4)cc3)nc2C(=O)NCCCN2CCCCC2)c1 [Compound 54, 4-(3-Methoxyphenyl)-N-[3-(piperidin-1-yl)propyl]-1-(4-{[(pyridin-3-ylmethyl)carbamoyl]ami-no}phenyl)-1H-pyrazole-3-carboxamide]	< 100	–
O=C(NCc1ccc(Cl)nc1)Nc1ccc(-n2nc(N3CCN(C4CCCC4)CC3)c3ccccc32)cc1 [Compound 55, 1-[(6-Chloro-pyridin-3-yl)methyl]-3-{4-[3-(4-cyclopentyl-piperazin-1-yl)-1H-indazol-1-yl]phenyl}urea]	–	≥ 100
O=C(NCCCCn1cc(C(=O)N2CCC(N3CCCCC3)CC2)c2ccccc21)NCc1cccnc1 [Compound 57, 1-{4-[3-(1,4′-Bipiperidin-1′-yl-carbonyl)-1H-indol-1-yl]butyl}-3-(pyridin-3-ylmethyl) urea]	< 100	–
CC(=O)N1CCC(n2cc(C(=O)CCCCNC(=O)NCc3cccnc3)c3ccccc32)CC1 [Compound 58, 1-{5-[1-(1-Acetylpiperidin-4-yl)-1H-indol-3-yl]-5-oxo-pentyl}-3-(pyridin-3-ylmethyl)urea]	≥ 100	–
O=C(NCCCn1cc(C(=O)NCCCN2CCCC2)c2ccccc21)NCc1cccnc1 [Compound 59, 1-(3-{[(Pyridin-3-ylmethyl)carbamoyl]amino}propyl)-N-[3-(pyrrolidin-1-yl)propyl]-1H-indole-3-carboxamide]	≥ 100	–
O=C(NCc1cccnc1)Nc1ccc(-n2cc(-c3nccn3CCC3CCNCC3)c3ccccc32)cc1 [Compound 60, 1-[4-(3-{1-[2-(Piperidin-4-yl)ethyl]-1H-imidazol-2-yl}-1H-indol-1-yl)phenyl]-3-(pyridin-3-ylmethyl)urea]	≥ 100	–
O=C(NCc1cccnc1)Nc1ccc(-n2nc(N3CCC(CN4CCOCC4)CC3)c3ccccc32)cc1 [Compound 62, 1-(4-{3-[4-(Morpholin-4-ylmethyl)piperidin-1-yl]-1H-indazol-1-yl}phenyl)-3-(pyridin-3-ylmethyl)urea]	–	< 100
O=C(NCc1cncs1)Nc1ccc(-n2cc(CCN3CCOCC3)c3ccccc32)cc1 [Compound 63, 1-(4-{3-[2-(Morpholin-4-yl)ethyl]-1H-indol-1-yl}phenyl)-3-(1,3-thiazol-5-ylmethyl) urea]	–	≥ 100
CN1CCN(C2CCN(C(=O)c3cn(CCCCCNC(=O)NCc4cccnc4)c4ccccc34)CC2)CC1 [Compound 64, 1-[5-(3-{[4-(4-Methylpiperazin-1-yl)piperidin-1-yl]carbonyl}-1H-indol-1-yl)pentyl]-3-(pyridin-3-ylmethyl) urea]	< 100	–
CCOC(=O)c1cn(CCCCCNC(=O)NCc2cccnc2)c2ccccc12 [Compound 65, Ethyl 1-(5-{[(pyridin-3-ylmethyl)carbamoyl]amino}pentyl)-1H-indole-3-carboxylate]	< 100	–
O=C(NCc1cccnc1)Nc1ccc(N2CC3(CCN(C(=O)OCc4ccccc4)CC3)c3ccccc32)cc1 [Compound 66, Benzyl 1-(4-{[(pyridin-3-ylmethyl)carbamoyl]ami-no}phenyl)-1,2-dihydro-1′H-spiro[indole-3,4′-piperidine]-1′-carboxyylate]	< 100	–
CC(C)(CCCCNC(=O)NCc1cccnc1)n1cc(C(=O)N2CCN(C3CCCCC3)CC2)c2ccccc21 [Compound 67, 1-(5-{3-[(4-Cyclohexyl-piperazin-1-yl)carbonyl]-1H-indol-1-yl}-5-methylhexyl)-3-(pyridin-3-ylmethyl)urea]	< 100	–
O=C(NCc1cccnc1)Nc1ccc2c(C(=O)N3CCC(N4CCCCC4)CC3)cn(Cc3ccccc3)c2c1 [Compound 68, 1-[1-Benzyl-3-(1,4′-bipiperidin-1′-yl-carbonyl)-1H-indol-6-yl]-3-(pyridin-3-ylmethyl)urea]	≥ 100	–
